Source: ChEMBL document CHEMBL1131036, “Structure-based design, synthesis, and biological evaluation of irreversible human rhinovirus 3C protease inhibitors. 1. Michael acceptor structure-activity studies” (J Med Chem, 1998)
Active and inactive are the calls of the source. The rule behind the calls is not given here.

Assays:
[1] = test system: Human rhinovirus sp.; experiment: Inhibitory activity of compound towards partial or complete loss of 3C protease (HRV-14) activity in presence of 5 mM dithiothreitol (DTT); inhibition observed; format: functional, organism-based
[2] = test system: HeLa; experiment: Formazan production in HRV-14 virus infected cells; format: functional, cell-based; details: Homo sapiens
[3] = target: T1, Human rhinovirus A protease (Human rhinovirus sp.) (UniProt Q4U254); experiment: Catalytic rate constant (Kobs/[I]) evaluated against human rhinovirus (HRV) serotype 14 3C Protease (3CP); details: Human rhinovirus B (HRV-14)
T1 sequence (whole entry): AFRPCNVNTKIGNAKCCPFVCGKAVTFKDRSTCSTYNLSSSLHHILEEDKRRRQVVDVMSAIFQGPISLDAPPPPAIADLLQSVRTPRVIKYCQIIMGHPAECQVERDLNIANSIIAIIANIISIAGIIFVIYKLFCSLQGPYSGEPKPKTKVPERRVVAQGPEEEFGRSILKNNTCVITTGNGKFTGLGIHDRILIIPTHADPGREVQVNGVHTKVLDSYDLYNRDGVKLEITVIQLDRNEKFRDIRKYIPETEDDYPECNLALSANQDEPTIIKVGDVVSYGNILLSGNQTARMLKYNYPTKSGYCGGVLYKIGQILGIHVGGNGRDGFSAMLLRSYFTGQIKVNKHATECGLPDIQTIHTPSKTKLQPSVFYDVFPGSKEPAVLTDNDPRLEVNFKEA

[4] = test system: HeLa; experiment: Concentration of compound that decreased the percentage of formazan production in treated HRV-14 virus infected cells to that produced in uninfected cells; format: functional; details: Homo sapiens
[5] = Half-life in rat plasma; format: ADME, organism-based
[6] = target: T1, Human rhinovirus A protease (Human rhinovirus sp.); experiment: Catalytic rate constant (Kobs/[I]) was evaluated against human rhinovirus (HRV) serotype 16 3C Protease (3CP)
[7] = target: T1, Human rhinovirus A protease (Human rhinovirus sp.); experiment: Catalytic rate constant (Kobs/[I]) was evaluated against human rhinovirus (HRV) serotype 2 3C Protease (3CP)
[8] = test system: Human rhinovirus sp.; experiment: Inhibitory activity of compound towards partial or complete loss of 3C protease (HRV-14) activity in presence of 5 mM dithiothreitol (DTT); No inhibition; format: functional, organism-based
[9] = test system: HeLa; experiment: Concentration of compound that increased the percentage of formazan production in HRV-2 virus infected cells to that of untreated control cells; format: functional, cell-based; details: Homo sapiens
[10] = test system: HeLa; experiment: Concentration of compound that increased the percentage of formazan production in HRV-16 virus infected cells to that of untreated control cells; format: functional, cell-based; details: Homo sapiens

Row | SMILES | inhibition [1] | EC50 [2] [µM] | K obs / 1 [3] [M⁻¹ s⁻¹] | CC50 [4] [µM] | half-life [5] [min] | K obs / 1 [6] [M⁻¹ s⁻¹] | K obs / 1 [7] [M⁻¹ s⁻¹] | inhibition [8] | EC50 [9] [µM] | EC50 [10] [µM]
1 | CC(C)C[C@H](NC(=O)OCc1ccccc1)C(=O)N[C@@H](Cc1ccccc1)C(=O)N[C@H](/C=C/C(=O)N1CCCC1=O)CCC(N)=O | Yes | 0.89 | 126000 | > 320 | – | – | – | – | – | –
2 | CON(C)C(=O)/C=C/[C@H](CCC(N)=O)NC(=O)[C@H](Cc1ccccc1)NC(=O)[C@H](CC(C)C)NC(=O)OCc1ccccc1 | – | 4 | 5900 | > 100 | 12 | – | – | – | – | –
3 | CC(C)C[C@H](NC(=O)OCc1ccccc1)C(=O)N[C@@H](Cc1ccccc1)C(=O)N[C@H](/C=C/C(=O)c1ccco1)CCC(N)=O | Yes | 2.4 | 460000 | 19 | – | – | – | – | – | –
4 | CC(=O)/C=C/[C@H](CCC(N)=O)NC(=O)[C@H](Cc1ccccc1)NC(=O)[C@H](CC(C)C)NC(=O)OCc1ccccc1 | – | 2 | 54000 | 60 | – | 8900 | 2700 | – | – | –
5 | CC(C)C[C@H](NC(=O)OCc1ccccc1)C(=O)N[C@@H](Cc1ccccc1)C(=O)N[C@H](/C=C/C(=O)N1CCc2cc([N+](=O)[O-])ccc21)CCC(N)=O | – | 17 | 12000 | > 320 | – | – | – | inactive | – | –
6 | CCOC(=O)/C=C/[C@H](CCC(N)=O)NC(=O)[C@H](Cc1ccccc1)NC(=O)[C@H](CC(C)C)NC(=O)OCc1ccccc1 | – | 0.54 | – | > 320 | 10 | – | – | – | 1.6 | 2.3
7 | CC(C)C[C@H](NC(=O)OCc1ccccc1)C(=O)N[C@@H](Cc1ccccc1)C(=O)N[C@H](/C=C/C(=O)N1CCc2ccc([N+](=O)[O-])cc21)CCC(N)=O | – | > 320 | 29000 | > 320 | – | – | – | inactive | – | –
8 | CC(C)C[C@H](NC(=O)OCc1ccccc1)C(=O)N[C@@H](Cc1ccccc1)C(=O)N[C@H](/C=C/[N+](=O)[O-])CCC(N)=O | Yes | > 100 | 500000 | 100 | – | – | – | – | – | –
9 | CC(C)C[C@H](NC(=O)OCc1ccccc1)C(=O)N[C@@H](Cc1ccccc1)C(=O)N[C@H](/C=C/C(=O)N1CCOC1=O)CCC(N)=O | Yes | 1.6 | 600000 | > 100 | – | – | – | – | – | –
10 | CC(C)C[C@H](NC(=O)OCc1ccccc1)C(=O)N[C@@H](Cc1ccccc1)C(=O)N[C@H](/C=C1\CCOC1=O)CCC(N)=O | – | 5.2 | 10900 | > 320 | > 240 | – | – | – | – | –
11 | CC(C)C[C@H](NC(=O)OCc1ccccc1)C(=O)N[C@@H](Cc1ccccc1)C(=O)N[C@H](/C=C/C(=O)N1CCc2ccccc21)CCC(N)=O | – | 16 | 6500 | > 320 | > 80 | – | – | – | – | –
12 | CC(C)C[C@H](NC(=O)OCc1ccccc1)C(=O)N[C@@H](Cc1ccccc1)C(=O)N[C@H](/C=C/C(=O)N1CCN(C)C1=O)CCC(N)=O | Yes | 5 | 312000 | > 320 | – | – | – | – | – | –
13 | CCOC(=O)/C(C)=C/[C@H](CCC(N)=O)NC(=O)[C@H](Cc1ccccc1)NC(=O)[C@H](CC(C)C)NC(=O)OCc1ccccc1 | – | 3 | 7300 | > 320 | 20 | – | – | – | – | –
14 | CC(C)C[C@H](NC(=O)OCc1ccccc1)C(=O)N[C@@H](Cc1ccccc1)C(=O)N[C@H](/C=C/C(=O)N1CCc2ccc(S(=O)(=O)N(C)C)cc21)CCC(N)=O | – | > 100 | 28300 | – | – | – | – | inactive | – | –
15 | CC(C)C[C@H](NC(=O)OCc1ccccc1)C(=O)N[C@@H](Cc1ccccc1)C(=O)N[C@H](/C=C/C(=O)OC1CCCCC1)CCC(N)=O | – | 3.6 | 3700 | > 320 | 4 | – | – | – | – | –
16 | CC(=O)N1CC/C(=C\[C@H](CCC(N)=O)NC(=O)[C@H](Cc2ccccc2)NC(=O)[C@H](CC(C)C)NC(=O)OCc2ccccc2)C1=O | – | 0.71 | 156000 | > 100 | – | 39000 | 13000 | – | – | –
17 | COC(=O)/C=C/[C@H](CCC(N)=O)NC(=O)[C@H](Cc1ccccc1)NC(=O)[C@H](CC(C)C)NC(=O)OCc1ccccc1 | – | 1.3 | 20000 | > 320 | – | – | – | – | – | –
18 | CCNC(=O)/C=C/[C@H](CCC(N)=O)NC(=O)[C@H](Cc1ccccc1)NC(=O)[C@H](CC(C)C)NC(=O)OCc1ccccc1 | – | > 320 | 350 | > 320 | – | – | – | – | – | –
